Measurements taken from US7915050B2, “Regulatory genes for plant differentiation and growth, and use of the same” (National University Corporation Nagoya University, priority 2005, dated 2011).

Target: T1, AtGID1c in the presence of RGA (Arabidopsis thaliana, UniProt Q940G6)
T1 construct: made in house; host or cells: E. coli (stated for AtGID1)
T1 sequence (Q940G6 1-344): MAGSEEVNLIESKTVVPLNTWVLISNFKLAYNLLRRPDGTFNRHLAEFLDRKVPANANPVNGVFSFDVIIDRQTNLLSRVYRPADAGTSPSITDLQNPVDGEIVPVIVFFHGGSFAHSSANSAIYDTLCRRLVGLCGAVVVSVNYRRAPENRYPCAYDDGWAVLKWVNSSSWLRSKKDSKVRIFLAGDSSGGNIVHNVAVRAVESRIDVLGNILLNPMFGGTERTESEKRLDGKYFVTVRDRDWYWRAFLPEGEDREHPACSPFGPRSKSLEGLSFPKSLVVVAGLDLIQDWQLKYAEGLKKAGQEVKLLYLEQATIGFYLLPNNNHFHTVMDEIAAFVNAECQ
T1 sequence (Q9SLH3 1-587 partner): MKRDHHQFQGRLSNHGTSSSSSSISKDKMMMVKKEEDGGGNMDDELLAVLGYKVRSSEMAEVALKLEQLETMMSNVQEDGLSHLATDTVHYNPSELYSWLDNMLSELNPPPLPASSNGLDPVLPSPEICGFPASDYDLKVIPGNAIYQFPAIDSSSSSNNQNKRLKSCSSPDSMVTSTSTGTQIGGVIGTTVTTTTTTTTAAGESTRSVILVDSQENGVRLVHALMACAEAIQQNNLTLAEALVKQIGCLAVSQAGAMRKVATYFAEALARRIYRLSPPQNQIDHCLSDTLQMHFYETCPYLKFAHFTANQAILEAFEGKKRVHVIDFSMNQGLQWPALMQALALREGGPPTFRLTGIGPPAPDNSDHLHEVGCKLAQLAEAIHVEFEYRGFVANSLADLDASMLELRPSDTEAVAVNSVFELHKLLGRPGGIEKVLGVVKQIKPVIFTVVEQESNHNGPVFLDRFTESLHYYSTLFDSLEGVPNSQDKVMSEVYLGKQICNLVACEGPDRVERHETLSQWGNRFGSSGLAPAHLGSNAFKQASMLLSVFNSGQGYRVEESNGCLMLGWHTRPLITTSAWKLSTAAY
Experiment: Scatchard analysis of AtGID1c-GA binding in the presence of RGA
Protocol: Panel A) depicts AtGID1-AtDELLA interaction in the presence of GA in two types of yeast hybrid (Y2H) assays. Each AtGID1 was used as a bait while AtDELLA was a prey. GA4 (10^−5 M) was added to the medium. The bars indicates β-galactosidase activity when o-nitrophenol-β-D-galactopyranoside was used as a substrate (Assay B). The growth of each transformant in the defined medium for 2 days (Assay A) is shown beneath of each bar graph. The experiment was carried out in quadruplicate. The SD value shown in the figure was determined from three measurements. Panel B) depicts the dose response in AtGID1-RGA interaction in Assay B of Y2H. GA4 (10^−5 to 10^−9 M) was added to the medium. The experiment was conducted in […]. The SD value shown in the figure was determined from three measurements. Panel C) depicts the results of an evaluation of the in vitro GA-binding potency of AtGID1 using AtDELLA. […] GAI (G) or RGA (R) was added, and then the GA-binding activity in each reaction mixture was measured according to the standard method. […] The SD value was determined from three measurements. […]
Next, whether AtDELLAs exert some kind of influence on the GA-binding activity of AtGID1s was examined in vitro. After labeled 16,17-dihydro-GA4 and AtGID1s were combined, AtDELLAs were added to the solutions, and the GA-binding activity was measured. […]

CC1C[C@]23C[C@H]1CCC2[C@]12CC[C@H](O)[C@](C)(C(=O)O1)[C@H]2[C@@H]3C(=O)O (stereo partly shown) [H2-GA4, 16,17-dihydro-GA4]
Kd: 12 nM
